Reference: ChEMBL document CHEMBL1201862, “PubChem BioAssay data set” (2004)
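Growth conditions: 96-well plates. Treatment: test compound, 48 hours, 5 concentrations. Analysis: linear interpolation between bracketing concentrations; unreached endpoints set to highest concentration. GI50 is the concentration that inhibits growth by half.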 Activity calls are given as the source filed them. Cut-off read from the data, not from the text of the source: active = GI50 up to about 1.1 µM and inactive = higher.

Columns and labels:
Assay in all cases: inhibition of tumour cell growth, NCI panel, 48 h
[1] = system: MDA-MB-435
[2] = system: MDA-MB-231
[3] = system: PC-3
[4] = system: Hs-578T
[5] = system: SNB-78
[6] = system: HOP-18
[7] = system: DMS-114
[8] = system: XF498

Compound | GI50 [1] | GI50 [2] | GI50 [3] | GI50 [4] | GI50 [5] | GI50 [6] | GI50 [7] | GI50 [8]
O=C(NCCCCCCNCc1cccc2ccccc12)Nc1cccc2ccccc12 | > 100 µM (inactive) | > 100 µM (inactive) | > 100 µM (inactive) | > 100 µM (inactive) |  |  |  | 
C=C1C(=O)C23C(O)CC4C5(C)CCCC4(C(O)OC5)C2C(OC(C)=O)CC1C3O (stereo unspecified) |  |  |  |  | 6.03 µM (inactive) | 16.7 µM (inactive) | 4.51 µM (inactive) | 
COc1cc2c(c(OC)c1OC)-c1ccc(SC)cc1C(=O)CC2 | < 0.01 µM (active) |  | < 0.01 µM (active) | < 0.01 µM (active) |  |  |  | 
CC1OC2OC3C(OCC(O)C3O)OC(=O)[C@]34CCC(C)(C)CC3C3=CCC5[C@@]6(C)C[C@H](O)[C@H](OC7OC(CO)C(O)C(O)C7OC7OCC(OC(=O)CC(C)(O)CC(=O)OC1C(O)C2O)C(O)C7O)[C@@](C)(CO)C6CC[C@@]5(C)[C@]3(C)CC4 (stereo partly specified) | 5.89 µM (inactive) | 9.23 µM (inactive) | 2.17 µM (inactive) | 8.34 µM (inactive) |  |  |  | 
CCOC(=O)C1=C(N)N(c2ccccc2)/C(=C(/C#N)c2nc3ccccc3[nH]2)S1 |  |  |  |  | > 100 µM (inactive) |  |  | > 100 µM (inactive)
CN(C)CCCNC(=O)c1cn2c(ccc3sc4ccccc4c(=O)c32)n1 | 13.6 µM (inactive) | 1.31 µM (inactive) | 4.8 µM (inactive) | 15.7 µM (inactive) |  |  |  | 
O=S(=O)(O)c1cc(/N=[N+](\[O-])c2cc(S(=O)(=O)O)c3ccccc3c2)cc2ccccc12 | > 100 µM (inactive) | > 100 µM (inactive) | > 100 µM (inactive) | 33.5 µM (inactive) |  |  |  | 
CCOC(=O)c1cc2c([nH]1)c(O)cc1c2ccn1Cc1ccccc1 | 16.9 µM (inactive) | 23.5 µM (inactive) | 16.1 µM (inactive) | 19.4 µM (inactive) |  |  |  | 
COc1cc(C[C@@]2(C)[C@@H]3CCC[C@H](CO)[C@@]3(C)CC[C@@H]2C)c(Cl)c(OC)c1 | 13.7 µM (inactive) | 16.4 µM (inactive) | 14.2 µM (inactive) | 21.5 µM (inactive) |  |  |  | 
C#C/C=C\CCCC/C=C\C#CC#CCCCC#CC#C[C@H](COS(=O)(=O)O)OS(=O)(=O)O | > 100 µM (inactive) | > 100 µM (inactive) | > 100 µM (inactive) | > 100 µM (inactive) |  |  |  | 
CC(=O)OC12c3ccccc3C1CCCC21OCCCO1 (stereo unspecified) |  |  |  |  | > 100 µM (inactive) | > 100 µM (inactive) | > 100 µM (inactive) | 
CCNC(C)Cc1ccccc1 (stereo unspecified) |  |  |  |  | > 100 µM (inactive) | > 100 µM (inactive) | > 100 µM (inactive) | 
COC(=O)CC1CN(C(=O)OCc2ccccc2)C(C)(C)O1 (stereo unspecified) | > 100 µM (inactive) | > 100 µM (inactive) | 62.7 µM (inactive) |  |  |  |  | 
COc1cc([N+](=O)[O-])c(S(=O)(=O)O)cc1-n1nc(-c2ccccc2)n[n+]1-c1cc(S(=O)(=O)[O-])c([N+](=O)[O-])cc1OC | > 100 µM (inactive) | > 100 µM (inactive) | > 100 µM (inactive) | > 100 µM (inactive) |  |  |  | 
CCCCN1C(=O)CS/C1=N/Nc1nc2c([nH]1)c(=O)n(C)c(=O)n2C | 14.7 µM (inactive) | 29 µM (inactive) | > 100 µM (inactive) | 45.4 µM (inactive) |  |  |  | 
CCC1(C(=O)OC(C)(C)C)OC12C(C)CCCC2C (stereo unspecified) | 41.2 µM (inactive) | > 100 µM (inactive) | 57.9 µM (inactive) | 90.2 µM (inactive) |  |  |  | 
CN(Cc1ccccc1)C(=NC#N)N(C)Cc1ccccc1 |  |  |  |  | > 100 µM (inactive) |  |  | 
c1cc2nnnn2nc1N1CCCC1 | > 100 µM (inactive) | > 100 µM (inactive) | > 100 µM (inactive) |  |  |  |  | 
Oc1ccc(-c2nc3ccc(Br)cc3s2)cc1 | 21.1 µM (inactive) | 16.3 µM (inactive) | 19.2 µM (inactive) |  |  |  |  | 
CCOC(=O)C1=CC(C)(C(=O)OCC)Nc2c(nc(OC)[nH]c2=O)N1 (stereo unspecified) |  | > 10 µM (inactive) | > 10 µM (inactive) | > 10 µM (inactive) |  |  |  | 
O=C1CCSSCCC(=O)NCCN1 | > 100 µM (inactive) | > 100 µM (inactive) | > 100 µM (inactive) | > 100 µM (inactive) |  |  |  | 
CC(C)C[P+](c1ccccc1)(c1ccccc1)c1ccccc1 | 2.87 µM (inactive) | 31.8 µM (inactive) |  | 11.2 µM (inactive) |  |  |  | 
Cc1ccc2c(c1)[n+]([O-])c(N)n[n+]2[O-] | > 100 µM (inactive) | > 100 µM (inactive) | > 100 µM (inactive) | > 100 µM (inactive) |  |  |  | 
N#Cc1ccccc1NC(=O)C(=O)c1c(O)c2ccccc2oc1=O | > 100 µM (inactive) | > 100 µM (inactive) | > 100 µM (inactive) | > 100 µM (inactive) |  |  |  | 
CSC(=S)OC1CC(n2cnc3c(NC(=O)c4ccccc4)ncnc32)OC1CO[Si](C)(C)C(C)(C)C (stereo unspecified) | 6.12 µM (inactive) | 41.1 µM (inactive) | 5.64 µM (inactive) | 38.8 µM (inactive) |  |  |  | 
C/C(=C/CO[Si](C)(C)C(C)(C)C)C(=O)N(C)c1ccccc1I | 17.2 µM (inactive) | 15.1 µM (inactive) | 14.1 µM (inactive) | 18.2 µM (inactive) |  |  |  | 
CC(C)(C)C1=CC(=N/N=c2\scc(-c3ccccc3)n2Cc2ccccc2)C=C(C(C)(C)C)C1=O |  |  |  |  |  |  | > 100 µM (inactive) | > 100 µM (inactive)
CC(C)NC(=O)OCc1c(COC(=O)NC(C)C)n(C)c2c1ccc1sccc12 | 13.2 µM (inactive) | 20.1 µM (inactive) | 11.5 µM (inactive) | 13.6 µM (inactive) |  |  |  | 
